{"source": "patent US20030077576A1", "about": "“Use of monoclonal antibodies and functional assays for prediction of risk of opportunistic infection” (priority 2001, published 2003)", "type_in_all_cases": "cell-based, human", "key": {"monocyte VLA-5 (CD49e)": {"system": "monocyte VLA-5 (CD49e)", "settings": "for log fluorescence intensity for VLA-5 (CD49e stained with mAb SAM-1) in the CD14+ (monocyte) population, FN120: 2 μM FN120 for 2 h in the presence of the protease inhibitor; for log fluorescence intensity for VLA-5 (CD49e stained with mAb SAM-1) in the CD14+ (monocyte) population, FN120 / log fluorescence intensity for VLA-5 (CD49e stained with mAb SAM-1) in the CD14+ (monocyte) population, No Rx: 0.2 mM PMSF, 2 mM CdCl2, 40 μM bestatin, 10 μM 1,10 phenanthroline, 0.1 mM EGTA, mean ± SEM, three donors; for log fluorescence intensity for VLA-5 (CD49e stained with mAb SAM-1) in the CD14+ (monocyte) population, No Rx: protease inhibitor alone, no FN120, 2 h", "description": "Briefly, heparinized blood was distributed in 0.1-ml aliquots into polypropylene tubes for incubation with saturating concentrations of primary or secondary antibodies at 4° C. for 30 min. Incubations were separated by two washes with ice-cold Dulbecco's PBS (Gibco Laboratories, Grand Island, N.Y.). FITC-conjugated sheep anti-mouse Ig was used at a dilution of 1:120. PE-conjugated anti-CD14 (clone 116, Beckman Coulter), added after the secondary antibody, was used according to the manufacturer's directions. After leukocytes were stained and washed, red cells were lysed with FACS Lysing Solution (Becton Dickinson). Leukocytes were washed again, fixed in 1% paraformaldehyde, and analyzed by flow cytometry the day of the experiment. […] Total white blood cell (Coulter Counter, Coulter Electronics, Hialeah, Fla.) and differential counts were measured in aliquots of the same blood samples used for immunofluorescence studies. Tests of control blood donors were randomly interspersed among patient samples.\nFlow cytometry was performed on an Epics Profile 1 with three fluorescence channels (Coulter Cytometry, Hialeah, Fla.) that has an argon laser tuned to 488 nm. Daily alignment and calibration of the instrument was performed with DNA-check and Standard-Brite fluorescent beads (Coulter). Green (FL1), orange (FL2), and red (FL3) fluorescence signals are measured on a four-decade logarithmic scale. Linearity of log fluorescence intensity was checked with Immuno-Brite fluorescent beads. Appropriate compensations for spectral overlap between the three channels is carried out prior to calculating data. The mean intensity of fluorescence, measured on a 4 decade logarithmic scale, was converted to a linear scale, using a 256 channel histogram, to give a mean channel number, also known as the mean channel fluorescence (MCF). This was used to estimate the average fluorescence emission of cells reactive with specific monoclonal antibodies. Cell surface display of specific mAbs were precisely delineated when necessary by means of quantitative flow cytometry, using the Quantum Simply Cellular Microbeads Kit from Sigma BioSciences, St. Louis, Mo. This kit contained four bead populations that bind graduated quantities of antibodies per bead. […] By interpolation, this standard curve was used to accurately estimate the quantity of antibody bound to other cellular targets. Leukocytes were initially selected for fluorescence analysis by a combination of right-angle and low angle forward light scatter. Two color fluorescence, with PE conjugated anti-CD14 as a qualifier was used specifically to identify monocytes, and anti-CD3 to identify T lymphocytes. Other lymphoid elements were identified, as required, by using appropriate direct antibody conjugates. At least 2500 monocytes were counted in each sample. Fluorescence measurements from isotype controls were subtracted from data obtained with all reported antibodies.\nTo determine how fragments of fibronectin might affect VLA-5 expression, the effect of adding purified 120 kD and 40 kD fragments of fibronectin to heparin-anticoagulated whole blood from normal donors was measured. The 120 kD fragment has an RGD motif and binds to VLA-5 on cells."}, "U937 monocytoid cells": {"system": "U937 monocytoid cells", "experiment": "FN120 treatment of U937 monocytoid cells: proteinase-3 expression and VLA-5 shedding", "settings": "U937 cells treated with FN120", "from_the_text": "To further investigate how FN120 causes VLA-5 shedding, U937 monocytoid cells were studied. These display greater quantities of VLA-5 than blood monocytes. They also display the serine protease, proteinase-3, when activated (Rao et al., 1996). U937 cells were washed repeatedly, to remove exogenous fibronectin and serum proteases, and resuspended in serum-free medium for treatment with FN120. […] Treating the cells with polyclonal anti-proteinase-3 or serine proteinase inhibitors such as alpha-antitrypsin blocked proteinase-3 activity. Blocking proteinase-3 activity with either agent prevented hydrolysis and release of VLA-5 molecules that are otherwise shed when U937 cells are incubated with FN120 as shown in FIG. 11."}, "CD14+ monocytes": {"system": "CD14+ monocytes", "experiment": "Monocyte migration into collagenous matrices with or without native fibronectin", "settings": "4 hrs at 37° C., pads impregnated with full-length 220 kD native fibronectin", "description": "Briefly, monocytes were incubated with collagenous matrices, half of which had been impregnated with full-length 220 kD native fibronectin. After 4 hrs contact at 37° C., unbound MNLs were washed away. The pads were dissolved with collagenase to recover and count the cells that had migrated into the matrix (Birdsall et al., 1997)."}}}
{"compound": "c1cnc2c(c1)ccc1cccnc12", "note": "[1,10 phenanthroline]", "values": [{"measurement": "log fluorescence intensity for VLA-5 (CD49e stained with mAb SAM-1) in the CD14+ (monocyte) population, FN120", "setting": "monocyte VLA-5 (CD49e)", "result": "3.1 ± 0.6"}, {"measurement": "log fluorescence intensity for VLA-5 (CD49e stained with mAb SAM-1) in the CD14+ (monocyte) population, No Rx", "setting": "monocyte VLA-5 (CD49e)", "result": "4.9 ± 0.6"}]}
{"compound": "O=CC[C@@H](O)[C@H](O)[C@H](O)CO", "note": "[2-deoxyglucose]", "values": [{"measurement": "loss of VLA-5 with 120 kD fibronectin fragments when cellular metabolism is inhibited", "setting": "monocyte VLA-5 (CD49e); 2-deoxyglucose and sodium azide together, with 120 kD fibronectin fragments", "result": "failed to occur"}]}
{"compound": "[Cl][Cd][Cl]", "note": "[CdCl2]", "values": [{"measurement": "log fluorescence intensity for VLA-5 (CD49e stained with mAb SAM-1) in the CD14+ (monocyte) population, FN120", "setting": "monocyte VLA-5 (CD49e)", "result": "2.2 ± 0.3"}, {"measurement": "log fluorescence intensity for VLA-5 (CD49e stained with mAb SAM-1) in the CD14+ (monocyte) population, No Rx", "setting": "monocyte VLA-5 (CD49e)", "result": "4.7 ± 0.5"}]}
{"compound": "O=C(O)CN(CCOCCOCCN(CC(=O)O)CC(=O)O)CC(=O)O", "note": "[EGTA]", "values": [{"measurement": "log fluorescence intensity for VLA-5 (CD49e stained with mAb SAM-1) in the CD14+ (monocyte) population, FN120", "setting": "monocyte VLA-5 (CD49e)", "result": "2.8 ± 0.6"}, {"measurement": "log fluorescence intensity for VLA-5 (CD49e stained with mAb SAM-1) in the CD14+ (monocyte) population, No Rx", "setting": "monocyte VLA-5 (CD49e)", "result": "5.1 ± 0.3"}]}
{"compound": "O=S(=O)(F)Cc1ccccc1", "note": "[PMSF, phenylmethylsulfonylfluoride]", "values": [{"measurement": "log fluorescence intensity for VLA-5 (CD49e stained with mAb SAM-1) in the CD14+ (monocyte) population, FN120", "setting": "monocyte VLA-5 (CD49e)", "result": "5.8 ± 0.7"}, {"measurement": "log fluorescence intensity for VLA-5 (CD49e stained with mAb SAM-1) in the CD14+ (monocyte) population, No Rx", "setting": "monocyte VLA-5 (CD49e)", "result": "5.4 ± 0.5"}]}
{"compound": "CC(C)C[C@H](NC(=O)[C@@H](O)[C@H](N)Cc1ccccc1)C(=O)O", "note": "[bestatin]", "values": [{"measurement": "log fluorescence intensity for VLA-5 (CD49e stained with mAb SAM-1) in the CD14+ (monocyte) population, FN120", "setting": "monocyte VLA-5 (CD49e)", "result": "2.4 ± 0.5"}, {"measurement": "log fluorescence intensity for VLA-5 (CD49e stained with mAb SAM-1) in the CD14+ (monocyte) population, No Rx", "setting": "monocyte VLA-5 (CD49e)", "result": "4.9 ± 0.3"}]}
{"compound": "alpha-antitrypsin: serine proteinase inhibitor", "values": [{"measurement": "proteinase-3 activity", "setting": "U937 monocytoid cells", "result": "blocked"}]}
{"compound": "fibronectin", "values": [{"measurement": "CD14+ monocytes accumulated in fibronectin-containing pads versus plain collagen pads", "setting": "CD14+ monocytes", "result": "three times as many"}]}
